Laboratory results from patent US4239778A, “Azaprostanoic acid analogs and their use as inhibitors of platelet aggregation” (priority 1978, dated 1980).
“Also recorded” adds a separate entry of the source. Like-named read-outs stand apart in the source and are kept apart here.

Experiments:
Swiss Webster mice = type: in vivo, mouse; details: 30 mg/kg i.p.
Experimental: (§1) Swiss Webster mice (25 gm) maintained on a Purina diet were injected intraperitoneally with either 0.1 ml corn oil or 0.1 ml corn oil containing 13-azaprostanoic acid (13-APA) of Example 5. The dose of 13-APA employed was 30 mg/kg. One hour subsequent to injection, 0.05 ml of a sodium arachidonate solution was administered by rapid I.V. through the tail vein to both control and drug-treated mice. The arachidonate was dissolved in 90% saline and 10% ethanol (95%).

[1] = tested on: platelet conversion of AA to thromboxane B2 (TXB2); experiment: TXB2 formation in platelet rich plasma aggregated with arachidonic acid (radioimmunoassay); type: cell-based
Experimental: (§2) Platelet rich plasma was aggregated with 500 μM arachidonic acid and three minutes following arachidonate addition, aliquots of the plasma were drawn for TXB2 determinations.

platelet rich plasma = experiment: Platelet aggregation with 500 μM arachidonic acid (Table IV); type: cell-based
Experimental: as §2

thromboxane synthetase [2] = experiment: TXB2 formation in response to added PGH2 in indomethacin-treated resuspended platelets (thromboxane synthetase); type: cell-based
Experimental: This possibility was examined by measuring the effect of 13-APA on TXB2 formation in response to added PGH2 (0.13 μg/ml). Platelets were isolated from EDTA-treated ([…]) PRP by centrifugation at 800 xg for 15 minutes. The platelet pellet was resuspended by gentle swirling in calcium-free Tyrode buffer (pH 7.4). […] Moreover, if it is assumed that TXA2 is the final mediator involved in prostaglandin activation, 13-APA must act to block the interaction of TXA2 with the platelet receptor.

platelets = experiment: PGH2-induced platelet aggregation (Table V); type: cell-based
platelet receptor = experiment: Platelet aggregation induced by direct agonist 9-epoxy CEE; type: cell-based; details: 3 μM 9-epoxy CEE
Text: Such inhibitory activity has not been previously reported for any compound which selectively blocks AA-induced aggregation.

mice = experiment: Observation of mice after 30 mg/kg 13-APA; type: in vivo, mouse; details: months after dose
Experimental: as §1

cyclooxygenase = details: cited from earlier work
[3] = in vivo; cited from earlier work
thromboxane synthetase [4] = details: cited from earlier work
platelet aggregation = details: cited from earlier work
prostacyclin synthetase = details: cited from earlier work
PGE2 = details: cited from earlier work
platelet cAMP levels = details: cited from earlier work
[5] = 1 h before I.V. arachidonate (100 mg/kg), number of mice of 4
[6] = AA 500 μM + imidazole 100 μg/ml
[7] = AA 500 μM + imidazole 200 μg/ml

## CCCCCCCN[C@H]1CCC[C@@H]1CCCCCCC(=O)O [Example 13-APA, 13-azaprostanoic acid]
Swiss Webster mice; [5]
  Death: 0
  Severe Respiratory Distress: 0
Swiss Webster mice; arachidonate 100 mg/kg I.V.
  symptoms of thromboembolism (in words): none of the symptoms of thromboembolism
[1]; AA 500 μM + 13-APA 10 μM
  TXB2: 1164 ± 25 ng/mL
[1]; AA 500 μM + 13-APA 50 μM
  TXB2: 750 ± 19 ng/mL
[1]; Platelet, 0.05 h, 13-APA 50 μM, read-out: decrease of TXB2 formation
  inhibition at 50 µM: 36%
Platelet rich plasma; 13-APA 50 μM
  inhibition of aggregation (in words): completely inhibits aggregation
Platelet rich plasma; AA 500 μM + 13-APA 10 μM
  % Aggregation: 80%
Platelet rich plasma; AA 500 μM + 13-APA 50 μM
  % Aggregation: 0%
Thromboxane synthetase [2]; 13-APA 100 μM
  platelet production of TXB2 (in words): no effect on platelet production of TXB2
Thromboxane synthetase [2]; PGH2 […] + 13-APA 10 μM
  TXB2: 50 ± 2 ng/mL
Thromboxane synthetase [2]; PGH2 […] + 13-APA 50 μM
  TXB2: 44 ± 2 ng/mL
Thromboxane synthetase [2]; PGH2 […] + 13-APA 100 μM
  TXB2: 40 ± 2 ng/mL
platelets; 13-APA 10 μM
  inhibition of PGH2-induced aggregation (in words): completely effective in inhibiting PGH2 -induced aggregation
platelets; PGH2 […] + 13-APA 10 μM
  % Aggregation: 0%
platelets; PGH2 […] + 13-APA 50 μM
  % Aggregation: 0%
platelets; PGH2 […] + 13-APA 100 μM
  % Aggregation: 0%
Platelet receptor; 13-APA 100 μM
  inhibition of aggregation induced by 9-epoxy CEE (in words): completely inhibited
Platelet receptor; Platelet, 13-APA 10 μM
  inhibition at 10 µM: ~60%
mice
  ill effects / toxicity (in words): no ill effects are evident

## CC(=O)Oc1ccccc1C(=O)O [aspirin]
cyclooxygenase
  inhibition of prostaglandin biosynthesis / cyclooxygenase (in words): inhibit prostaglandin biosynthesis by blocking the conversion of substrate fatty acids to endoperoxides
[3]
  bleeding times (in words): prolong bleeding times

## CCCCCC/C=C/C1C2CC(N=N2)C1C/C=C\CCCC(=O)O (centres unmarked) [azo prostanoic acid analog]
Thromboxane synthetase [4]
  inhibition of thromboxane synthetase (in words): potent inhibitor of thromboxane synthetase
Thromboxane synthetase [4]; listed as azo analog
  inhibition of thromboxane synthetase (in words): competitive inhibitor of PGH2 binding to the thromboxane synthetase enzyme; also recorded: selectively inhibit thromboxane synthetase in a concentration dependent fashion
cyclooxygenase
  inhibition of prostaglandin biosynthesis / cyclooxygenase (in words): cyclooxygenase enzyme was not affected
Platelet aggregation
  effect on platelet aggregation (in words): inhibitor of platelet aggregation induced by PGH2, arachidonic acid, or collagen, and of the second wave of ADP or epinephrine-induced aggregation
Platelet aggregation; listed as azo analog
  effect on platelet aggregation (in words): suppressed the attendant aggregation induced by arachidonate in a parallel, concentration-dependent fashion
Prostacyclin synthetase
  inhibition of prostacyclin synthetase (in words): inhibitory activity may also extend to prostacyclin synthetase
PGE2
  PGE2 formation (in words): increase in PGE2

## c1c[nH]cn1 [imidazole]
[1]; AA 500 μM + imidazole 20 μg/ml
  TXB2: 669 ± 33 ng/mL
[1]; [6]
  TXB2: 264 ± 7 ng/mL
[1]; [7]
  TXB2: 138 ± 8 ng/mL
[1]; imidazole 200 μg/ml
  TXB2 formation (in words): substantial depression of TXB2 formation
[1]; imidazole decreased from 200 μg/ml to 20 μg/ml
  TXB2 levels versus control (in words): significantly lower than control
Platelet rich plasma; AA 500 μM + imidazole 20 μg/ml
  % Aggregation: 21%
Platelet rich plasma; [6]
  % Aggregation: 11%
Platelet rich plasma; [7]
  % Aggregation: 5%
Platelet rich plasma; Platelet, read-out: inhibition of aggregation
  inhibition at 20 µg/mL: ~75%
Thromboxane synthetase [2]; PGH2 […] + imidazole 20 μg/ml
  TXB2: 26 ± 1 ng/mL
Thromboxane synthetase [2]; PGH2 […] + imidazole 100 μg/ml
  TXB2: 6 ± 1 ng/mL
Thromboxane synthetase [2]; PGH2 […] + imidazole 200 μg/ml
  TXB2: 3 ± 1 ng/mL
Thromboxane synthetase [2]; imidazole 20-200 μg/ml
  thromboxane synthetase inhibition (in words): blocks thromboxane synthetase in a dose dependent manner
platelets; PGH2 […] + imidazole 20 μg/ml
  % Aggregation: 30%
platelets; PGH2 […] + imidazole 100 μg/ml
  % Aggregation: 50%
platelets; PGH2 […] + imidazole 200 μg/ml
  % Aggregation: 60%
Thromboxane synthetase [4]
  concentration necessary to achieve inhibition of thromboxane synthetase: 2 mM
  inhibition of thromboxane synthetase (in words): selectively inhibit thromboxane synthetase in a concentration dependent fashion
Thromboxane synthetase [4]; listed as Imidazole
  inhibition of thromboxane synthetase (in words): selectively inhibits thromboxane synthetase
Platelet cAMP levels
  changes in platelet cAMP levels (in words): without inducing changes in platelet cAMP levels
Platelet aggregation
  effect on platelet aggregation (in words): erratic; also recorded: potentiate aggregation in washed platelets
